Data as given in ChEMBL document CHEMBL1949621, “Fluorocyclines. 1. 7-fluoro-9-pyrrolidinoacetamido-6-demethyl-6-deoxytetracycline: a potent, broad spectrum antibacterial agent” (J Med Chem, 2012).
Values after ≈ are worked out from the molar mass of the structure shown.

Assays:
Assay type in all cases: functional
Escherichia coli [1] = assay: Antibacterial activity against tetracycline-resistant Escherichia coli 155
Enterobacter cloacae = assay: Antibacterial activity against Enterobacter cloacae ATCC 108 13047
Klebsiella pneumoniae [2] = assay: Antibacterial activity against tetracycline-resistant Klebsiella pneumoniae 153
Enterococcus faecalis [3] = assay: Antibacterial activity against tetracycline-resistant Enterococcus faecalis 159
Pseudomonas aeruginosa = assay: Antibacterial activity against Pseudomonas aeruginosa ATCC 111 27853
Staphylococcus aureus [4] = assay: Antibacterial activity against tetracycline- and methicillin-resistant Staphylococcus aureus 161
Staphylococcus aureus [5] = assay: Antibacterial activity against Staphylococcus aureus ATCC 101 29213
Acinetobacter baumannii = assay: Antibacterial activity against Acinetobacter baumannii ATCC 19606 110
Streptococcus pneumoniae [6] = assay: microbe, parasite or virus in culture; conditions: ATCC 106 49619
Description: Antibacterial activity against Streptococcus pneumoniae ATCC 106 49619

Enterococcus faecalis [7] = assay: Antibacterial activity against Enterococcus faecalis ATCC 103 29212
Streptococcus pneumoniae [8] = assay: Antibacterial activity against tetracycline-resistant Streptococcus pneumoniae 160
Klebsiella pneumoniae [9] = assay: Antibacterial activity against Klebsiella pneumoniae ATCC 109 13883
Escherichia coli [10] = assay: Antibacterial activity against Escherichia coli ATCC 107 25922
Staphylococcus aureus [11] = assay: microbe, parasite or virus in culture; conditions: 158

Row | SMILES | MIC (Escherichia coli [1]) [µg/mL] | MIC (Enterobacter cloacae) [µg/mL] | MIC (Klebsiella pneumoniae [2]) [µg/mL] | MIC (Enterococcus faecalis [3]) [µg/mL] | MIC (Pseudomonas aeruginosa) [µg/mL] | MIC (Staphylococcus aureus [4]) [µg/mL] | MIC (Staphylococcus aureus [5]) [µg/mL] | MIC (Acinetobacter baumannii) [µg/mL] | MIC (Streptococcus pneumoniae [6]) [µg/mL] | MIC (Enterococcus faecalis [7]) [µg/mL] | MIC (Streptococcus pneumoniae [8]) [µg/mL] | MIC (Klebsiella pneumoniae [9]) [µg/mL] | MIC (Escherichia coli [10]) [µg/mL] | MIC (Staphylococcus aureus [11]) [µg/mL]
1 | CN(C)[C@@H]1C(O)=C(C(N)=O)C(=O)[C@@]2(O)C(O)=C3C(=O)c4c(O)c(NC(=O)CN5CC[C@@H](O)C5)cc(F)c4C[C@H]3C[C@@H]12 | > 32 | 16 (≈ 27.8 µM) | > 32 | 2 (≈ 3.48 µM) | > 32 | 2 (≈ 3.48 µM) | 2 (≈ 3.48 µM) | 32 (≈ 55.7 µM) | 0.25 (≈ 0.435 µM) | 2 (≈ 3.48 µM) | 0.5 (≈ 0.87 µM) | 16 (≈ 27.8 µM) | 4 (≈ 6.96 µM) | 16 (≈ 27.8 µM)
2 | CN(C)[C@@H]1C(O)=C(C(N)=O)C(=O)[C@@]2(O)C(O)=C3C(=O)c4c(O)c(NC(=O)CN5CC6CCCC6C5)cc(F)c4C[C@H]3C[C@@H]12 (stereo partly specified) | 2 (≈ 3.34 µM) | 4 (≈ 6.68 µM) | 4 (≈ 6.68 µM) | 0.5 (≈ 0.835 µM) | > 32 | 1 (≈ 1.67 µM) | 0.5 (≈ 0.835 µM) | 0.06 (≈ 0.1 µM) | 0.125 (≈ 0.209 µM) | 0.25 (≈ 0.418 µM) | 0.06 (≈ 0.1 µM) | 2 (≈ 3.34 µM) | 1 (≈ 1.67 µM) | 0.5 (≈ 0.835 µM)
3 | CN(C)CC(=O)Nc1cc(F)c2c(c1O)C(=O)C1=C(O)[C@]3(O)C(=O)C(C(N)=O)=C(O)[C@@H](N(C)C)[C@@H]3C[C@@H]1C2 | 8 (≈ 15 µM) | 1 (≈ 1.88 µM) | 8 (≈ 15 µM) | 0.0312 (≈ 0.0586 µM) | 8 (≈ 15 µM) | 0.125 (≈ 0.235 µM) | 0.0156 (≈ 0.0293 µM) | 0.125 (≈ 0.235 µM) | 0.0156 (≈ 0.0293 µM) | 0.0156 (≈ 0.0293 µM) | 0.0156 (≈ 0.0293 µM) | 0.5 (≈ 0.939 µM) | 0.125 (≈ 0.235 µM) | 0.25 (≈ 0.469 µM)
4 | CCNCC(=O)Nc1cc(F)c2c(c1O)C(=O)C1=C(O)[C@]3(O)C(=O)C(C(N)=O)=C(O)[C@@H](N(C)C)[C@@H]3C[C@@H]1C2 | 16 (≈ 30 µM) | 0.5 (≈ 0.939 µM) | 8 (≈ 15 µM) | 0.125 (≈ 0.235 µM) | 8 (≈ 15 µM) | 0.25 (≈ 0.469 µM) | 0.0625 (≈ 0.117 µM) | 2 (≈ 3.76 µM) | 0.0156 (≈ 0.0293 µM) | 0.0625 (≈ 0.117 µM) | 0.0156 (≈ 0.0293 µM) | 1 (≈ 1.88 µM) | 0.25 (≈ 0.469 µM) | 1 (≈ 1.88 µM)
5 | CN(C)[C@@H]1CCN(CC(=O)Nc2cc(F)c3c(c2O)C(=O)C2=C(O)[C@]4(O)C(=O)C(C(N)=O)=C(O)[C@@H](N(C)C)[C@@H]4C[C@@H]2C3)C1 | > 32 | > 32 | > 32 | 16 (≈ 26.6 µM) | > 32 | > 32 | 8 (≈ 13.3 µM) | > 32 | 2 (≈ 3.32 µM) | 16 (≈ 26.6 µM) | 4 (≈ 6.65 µM) | > 32 | > 32 | > 32
6 | CN(C)[C@@H]1C(O)=C(C(N)=O)C(=O)[C@@]2(O)C(O)=C3C(=O)c4c(O)c(NC(=O)CNc5ccccc5)cc(F)c4C[C@H]3C[C@@H]12 | > 32 | > 32 | > 32 | 2 (≈ 3.44 µM) | > 32 | 4 (≈ 6.89 µM) | 2 (≈ 3.44 µM) | > 8 | 2 (≈ 3.44 µM) | 2 (≈ 3.44 µM) | > 4 | > 32 | > 32 | 2 (≈ 3.44 µM)
7 | CN(C)[C@@H]1C(O)=C(C(N)=O)C(=O)[C@@]2(O)C(O)=C3C(=O)c4c(O)c(NC(=O)CN5Cc6ccccc6C5)cc(F)c4C[C@H]3C[C@@H]12 | 4 (≈ 6.59 µM) | 32 (≈ 52.8 µM) | 32 (≈ 52.8 µM) | 0.5 (≈ 0.824 µM) | > 32 | 0.5 (≈ 0.824 µM) | 0.25 (≈ 0.412 µM) | 0.125 (≈ 0.206 µM) | 0.125 (≈ 0.206 µM) | 0.25 (≈ 0.412 µM) | 0.125 (≈ 0.206 µM) | 4 (≈ 6.59 µM) | 2 (≈ 3.3 µM) | 0.25 (≈ 0.412 µM)
8 | CN(C)[C@@H]1C(O)=C(C(N)=O)C(=O)[C@@]2(O)C(O)=C3C(=O)c4c(O)c(NC(=O)CNC(C)(C)C)cc(F)c4C[C@H]3C[C@@H]12 | 2 (≈ 3.57 µM) | 1 (≈ 1.78 µM) | 2 (≈ 3.57 µM) | 0.125 (≈ 0.223 µM) | 16 (≈ 28.5 µM) | 0.25 (≈ 0.446 µM) | 0.125 (≈ 0.223 µM) | 0.5 (≈ 0.892 µM) | 0.0156 (≈ 0.0278 µM) | 0.0625 (≈ 0.111 µM) | 0.0156 (≈ 0.0278 µM) | 1 (≈ 1.78 µM) | 0.25 (≈ 0.446 µM) | 0.0625 (≈ 0.111 µM)
9 | CN(C)[C@@H]1C(O)=C(C(N)=O)C(=O)[C@@]2(O)C(O)=C3C(=O)c4c(O)c(NC(=O)CN5CC[C@H](F)C5)cc(F)c4C[C@H]3C[C@@H]12 | 32 (≈ 55.5 µM) | 4 (≈ 6.94 µM) | 32 (≈ 55.5 µM) | 0.25 (≈ 0.434 µM) | > 32 | 0.5 (≈ 0.867 µM) | 0.25 (≈ 0.434 µM) | 0.125 (≈ 0.217 µM) | 0.0156 (≈ 0.0271 µM) | 0.25 (≈ 0.434 µM) | 0.0156 (≈ 0.0271 µM) | 4 (≈ 6.94 µM) | 2 (≈ 3.47 µM) | 1 (≈ 1.73 µM)
